Data as given in ChEMBL document CHEMBL1201862, “PubChem BioAssay data set” (2004).
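How tested: cells in 96-well plates exposed to compound for 48 hours at five concentrations. At the GI50, growth is halved.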 The source made the active and inactive calls. No stated cut-off is given here; in the data, active = GI50 up to about 1.1 µM and inactive = higher.

Key:
Assay in all cases: NCI-60 cell line screen, 48 h
[1] = tested on: HOP-62
[2] = tested on: EKVX
[3] = tested on: SF-295
[4] = tested on: T47D
[5] = tested on: OVCAR-8
[6] = tested on: SK-MEL-2
[7] = tested on: MDA-MB-435
[8] = tested on: SR
[9] = tested on: TK-10
[10] = tested on: SF-268
[11] = tested on: KM12
[12] = tested on: BT-549
[13] = tested on: HCT-15
[14] = tested on: UACC-62
[15] = tested on: UACC-257
[16] = tested on: RPMI-8226
[17] = tested on: SK-MEL-5
[18] = tested on: MDA-N
[19] = tested on: UO-31
[20] = tested on: OVCAR-4
[21] = tested on: MCF7
[22] = tested on: HCC 2998
[23] = tested on: A498
[24] = tested on: OVCAR-3
[25] = tested on: SW-620
[26] = tested on: RXF 393
[27] = tested on: 786-0
[28] = tested on: DU-145
[29] = tested on: SN12C
[30] = tested on: U-251
[31] = tested on: SK-OV-3
[32] = tested on: LOX IMVI
[33] = tested on: NCI/ADR-RES
[34] = tested on: NCI-H23
[35] = tested on: OVCAR-5
[36] = tested on: NCI-H460
[37] = tested on: MOLT-4
[38] = tested on: CCRF-CEM
[39] = tested on: A549
[40] = tested on: CAKI-1
[41] = tested on: SF-539
[42] = tested on: NCI-H522
[43] = tested on: MDA-MB-231
[44] = tested on: SNB-75
[45] = tested on: HL-60
[46] = tested on: Hs-578T
[47] = tested on: HT-29
[48] = tested on: HCT-116
[49] = tested on: SNB-19
[50] = tested on: K562
[51] = tested on: M14
[52] = tested on: ACHN
[53] = tested on: COLO 205
[54] = tested on: PC-3
[55] = tested on: HOP-92
[56] = tested on: SK-MEL-28
[57] = tested on: IGROV-1
[58] = tested on: Malme-3M
[59] = tested on: NCI-H226

## Cc1ccc(NC(=O)CC(=O)N2N=C(N(C)c3ccccc3)CC2c2ccccc2)cc1 (stereo not drawn)
[1]
  GI50: > 100 µM (inactive)
[2]
  GI50: > 100 µM (inactive)
[3]
  GI50: > 100 µM (inactive)
[4]
  GI50: > 100 µM (inactive)
[5]
  GI50: 58.7 µM (inactive)
[6]
  GI50: > 100 µM (inactive)
[7]
  GI50: > 100 µM (inactive)
[8]
  GI50: > 100 µM (inactive)
[9]
  GI50: > 100 µM (inactive)
[10]
  GI50: > 100 µM (inactive)
[11]
  GI50: > 100 µM (inactive)
[12]
  GI50: > 100 µM (inactive)
[13]
  GI50: > 100 µM
[14]
  GI50: > 100 µM (inactive)
[15]
  GI50: > 100 µM (inactive)
[16]
  GI50: > 100 µM (inactive)
[17]
  GI50: > 100 µM (inactive)
[18]
  GI50: > 100 µM (inactive)
[19]
  GI50: > 100 µM (inactive)
[20]
  GI50: 68.5 µM (inactive)
[21]
  GI50: > 100 µM (inactive)
[22]
  GI50: > 100 µM (inactive)
[23]
  GI50: > 100 µM (inactive)
[24]
  GI50: > 100 µM (inactive)
[25]
  GI50: > 100 µM (inactive)
[26]
  GI50: > 100 µM (inactive)
[27]
  GI50: > 100 µM (inactive)
[28]
  GI50: > 100 µM (inactive)
[29]
  GI50: > 100 µM (inactive)
[30]
  GI50: > 100 µM (inactive)
[31]
  GI50: > 100 µM (inactive)
[32]
  GI50: > 100 µM (inactive)
[33]
  GI50: > 100 µM (inactive)
[34]
  GI50: > 100 µM (inactive)
[35]
  GI50: > 100 µM (inactive)
[36]
  GI50: > 100 µM (inactive)
[37]
  GI50: > 100 µM (inactive)
[38]
  GI50: > 100 µM (inactive)
[39]
  GI50: > 100 µM (inactive)
[40]
  GI50: > 100 µM (inactive)
[41]
  GI50: > 100 µM (inactive)
[42]
  GI50: > 100 µM (inactive)
[43]
  GI50: > 100 µM (inactive)
[44]
  GI50: 25.4 µM (inactive)
[45]
  GI50: > 100 µM (inactive)
[46]
  GI50: > 100 µM (inactive)
[47]
  GI50: > 100 µM (inactive)
[48]
  GI50: > 100 µM (inactive)
[49]
  GI50: > 100 µM (inactive)
[50]
  GI50: > 100 µM (inactive)
[51]
  GI50: > 100 µM (inactive)
[52]
  GI50: > 100 µM (inactive)
[53]
  GI50: > 100 µM (inactive)
[54]
  GI50: > 100 µM (inactive)
[55]
  GI50: > 100 µM (inactive)
[56]
  GI50: > 100 µM (inactive)
[57]
  GI50: > 100 µM (inactive)
[58]
  GI50: > 100 µM (inactive)
[59]
  GI50: > 100 µM (inactive)

## COc1ccc2nc3cc(Cl)ccc3c(NCCCN(C)CCCNc3ccc4ncn5c6ccccc6c(=O)c3c45)c2c1
[1]
  GI50: 0.817 µM (active)
[2]
  GI50: 0.637 µM (active)
[3]
  GI50: 0.169 µM (active)
[4]
  GI50: 4.15 µM (inactive)
[5]
  GI50: 0.163 µM (active)
[6]
  GI50: 3.3 µM (inactive)
[7]
  GI50: 0.183 µM (active)
[8]
  GI50: 0.019 µM (active)
[9]
  GI50: 0.148 µM (active)
[10]
  GI50: 0.246 µM (active)
[11]
  GI50: 0.123 µM (active)
[12]
  GI50: 0.0822 µM (active)
[13]
  GI50: 0.0476 µM
[14]
  GI50: 1.92 µM (inactive)
[15]
  GI50: 0.973 µM (active)
[16]
  GI50: 0.0656 µM (active)
[17]
  GI50: 0.366 µM (active)
[18]
  GI50: 0.0817 µM (active)
[19]
  GI50: 0.488 µM (active)
[20]
  GI50: 0.0897 µM (active)
[21]
  GI50: 0.0525 µM (active)
[22]
  GI50: 0.0103 µM (active)
[23]
  GI50: 4.22 µM (inactive)
[24]
  GI50: 1.57 µM (inactive)
[25]
  GI50: 0.00573 µM (active)
[26]
  GI50: 0.0536 µM (active)
[27]
  GI50: 0.0333 µM (active)
[28]
  GI50: 0.587 µM (active)
[29]
  GI50: 0.0302 µM (active)
[30]
  GI50: 0.0478 µM (active)
[31]
  GI50: 2.72 µM (inactive)
[32]
  GI50: 0.116 µM (active)
[33]
  GI50: 1.26 µM (inactive)
[34]
  GI50: 1.18 µM (inactive)
[35]
  GI50: 3.09 µM (inactive)
[36]
  GI50: 0.0157 µM (active)
[37]
  GI50: 0.00264 µM (active)
[38]
  GI50: 0.228 µM (active)
[39]
  GI50: 0.0321 µM (active)
[40]
  GI50: 0.184 µM (active)
[41]
  GI50: 0.0861 µM (active)
[42]
  GI50: 0.0264 µM (active)
[43]
  GI50: 0.108 µM (active)
[44]
  GI50: 2.38 µM (inactive)
[45]
  GI50: 0.0226 µM (active)
[46]
  GI50: 3.99 µM (inactive)
[47]
  GI50: 0.0025 µM (active)
[48]
  GI50: 0.0025 µM (active)
[49]
  GI50: 0.269 µM (active)
[50]
  GI50: 0.00383 µM (active)
[51]
  GI50: 0.558 µM (active)
[52]
  GI50: 0.0102 µM (active)
[53]
  GI50: 0.0391 µM (active)
[54]
  GI50: 0.547 µM (active)
[55]
  GI50: 3.26 µM (inactive)
[56]
  GI50: 2.61 µM (inactive)
[57]
  GI50: 0.0374 µM (active)
[58]
  GI50: 2.69 µM (inactive)
[59]
  GI50: 0.395 µM (active)
